Experimental data from patent publication US4511568A, “CNS-Depressant pyrazolopyridines” (ICI Americas Inc., priority 1982, dated 1985).

Tests used:
rats = assay: Shock-Induced Suppression of Drinking (Rats) (SSD) Test; format: in vivo, rat; conditions: significant, P less than 0.05, Students' t-test, vs control
Method: Male rats in the weight range of 200 to 220 grams are deprived of water for 48 hours and deprived of food for 24 hours before testing. Normally, the rats are orally intubated (5 ml/kg) with the test compound (based on mg/kg body weight). The vehicle control group of rats is also intubated by mouth. A positive control group of rats is also orally administered a control dose of 18 mg/kg of chlordiazepoxide. Random selection of the rats is utilized in dosing. The rats are returned to the cage for one hour. Sixty minutes after drug administration, the rat is quietly removed from its cage and the hind feet wiped with Signa electrode gel made by Parker Laboratories or Orange, N.J. When intraperitoneal (i.p.) administration was used, the protocol was identical except that the drugs were administered (5 ml/kg) 30 minutes prior to testing. The rat is placed on the floor in the chamber facing the licking tube. The animal is allowed 5 minutes to make 20 licking responses and receive the first shock (0.5 mA). […] This period is automatically started, counted and terminated. The number of licks and shocks are recorded. The activity of the compound tested is evaluated by comparing the mean shocks of the group dosed with the test compound to both the mean shocks of the vehicle and positive control groups via a Students' t-test. […]

[1] = approximate oral LD50 in the rat; conditions: in vivo
[2] = test system: [^3 H]flunitrazepam binding, lysed mitochondrial-synaptosomal (P2) fraction from the cerebral cortex; assay: [^3 H]flunitrazepam binding test; conditions: 0.2 nM [^3 H]flunitrazepam, rat cerebral cortex membranes, 90 min at 0° C.
monkeys = assay: oral administration to monkeys, deaths; format: in vivo, monkey; conditions: 100 mg/kg
[3] = test system: [^3 H]flunitrazepam binding, lysed mitochondrial-synaptosomal (P2) fraction from the cerebral cortex; conditions: general statement on reference compounds; cited from earlier work

Structure (SMILES) | increase in the number of shocks taken (anti-conflict / anti-anxiety activity) (rats) | LD50 [1] [mg/kg] | effect on flunitrazepam binding [2] | deaths (monkeys) | effect on flunitrazepam binding (known compounds) [3]
CCCCCn1ncc2c(N)c3c(nc21)CN(CCC)C3=O [Example 5, 4-Amino-6,7-dihydro-1-n-pentyl-6-n-propylpyrazolo[3,4-b]pyrrolo[3,4-e]pyridin-5(1H)-one] | showed activity | > 800 | activity as displacers of flunitrazepam binding | no deaths | –
C=CCN1Cc2nc3c(cnn3CCCCC)c(N)c2C1=O [Example 4, 6-Allyl-4-amino-6,7-dihydro-1-n-pentylpyrazolo[3,4-b]pyrrolo[3,4-e]pyridin-5(1H)-one] | showed activity | – | activity as displacers of flunitrazepam binding | – | –
CCCCNc1c(C(=O)OCC)c(C)nc2c1cnn2CC [tracazolate] | – | – | – | – | enchancement of the binding
CCCCNc1c(C(=O)OCC)cnc2c1cnn2CC [cartazolate] | – | – | – | – | enchancement of the binding
